Values of other authors as cited in patent publication US11382901B2, “Tropicamide-based ophthalmic formulations” (FOR HEALTH PHARMA S.R.L., priority 2017, dated 2022).

Key:
[1] = test system: NIH/3T3 cells (murine fibroblasts)
[2] = test system: RAW 264.7 cells (murine macrophage-like)

## tyloxapol
[1]
  in vitro toxicity: considerable in vitro toxicity
[2]
  in vitro toxicity: considerable in vitro toxicity
